The values that follow come from US11957656B2, “Methods of treating Prader-Willi syndrome” (The Trustees of Columbia University in the City of New York, priority 2016, dated 2024).

Molecules are shown by their SMILES. Where two headings read alike, the source gives them in different places.

Series [1] deals with PDE4. As to conditions: cited from earlier work.
For series [2] the following is noted: cited from earlier work.
Series [3] deals with adenylate cyclase (AC) isoforms. The following applies: cited from earlier work.
The subject of a further series is PCSK1 transcript. The experiment in a line: PCSK1 transcript levels in iPSC-derived neurons. It is filed as cell-based, human. The method, then: FIGS. 6A-F are graphs showing that application of phosphodiesterase inhibitors to iPSC-derived neurons increases PCSK1 transcript levels and prohormone processing. […] FIGS. 6B-C: Roflumilast increases PCSK1 transcript levels in iPSC-derived neurons at Day 40 of differentiation (1043D3 line) at […] concentration. […] FIG. 6F: MK0952 applied at 10 μM in combination with 1 μM Forskolin increases PCSK1 transcript levels ˜2-fold in iPSC-derived neurons (1043D3 line).
Forskolin was applied to various cellular models and the results illustrate that it robustly and reliably increases PCSK1 transcript levels, PC1 protein levels, and functionally increases prohormone processing. PCSK1/Pcsk1 transcript levels increased between 2-3 fold in iPSC-derived neurons and primary mouse neurons exposed to 10 μM Forskolin (FIGS. 5A, C, D).
(§1) Cyclic AMP concentrations increased about 8.5-fold in iPSC-derived hypothalamic ARC neurons exposed to 10 μM Forskolin, supporting the inference that application of Forskolin increases PCSK1 transcript levels by raising cellular cAMP levels which in turn activate PCSK1's cAMP-response element promoter. FIG. 5A is a graph showing primary forebrain neurons were isolated from gestational day 19.5 (E19.5) embryos of wild type mice and cultured for 72 hours. Subsequently, cells were exposed to either 10 μM Forskolin or its vehicle, dimethyl sulfoxide (DMSO) for 20 hours. Pcsk1 transcript increased ˜2.5-fold in primary neurons exposed to Forskolin. FIG. 5B is a graph showing unaffected control hypothalamic arcuate-like (ARC) neurons (Hes Nkx2-1 hESC line) at day 37 (D37) of differentiation were treated with 10 μM Forskolin or vehicle for thirty minutes. Cyclic adenosine monophosphate (cAMP) levels were increased about 8.5-fold in cells exposed to Forskolin. […] Four hours of exposure yielded the maximal increase in upregulation, about 2.5-fold, of the time points tested.
However, the effect size of PDE inhibition on PCSK1 transcript levels is less than that induced by AC agonism with forskolin. […] Again, increased PCSK1 transcription due to combination treatment with Forskolin and Roflumilast also increases prohormone processing of POMC to ACTH (FIG. 6E).

In the next series the test system is cAMP. The experiment in a line: cAMP levels in hypothalamic arcuate-like (ARC) neurons (Hes Nkx2-1 hESC line). It is filed as cell-based, human. As to conditions: 10 μM Forskolin, thirty minutes, day 37 of differentiation. The method, then:
as §1, with “2.5-fold” for “˜2.5-fold”, “([…])” for “(D37)”

The subject of another series is PC1. As to the kind of experiment: PC1 protein levels in isolated islets from WT mice. It is filed as cell-based, mouse. The following applies: isolated islets from wild type mice, 25 μM and 50 μM Forskolin.
Series [4] can be described thus: Ratio of circulating proinsulin:insulin in wild type mice. It is filed as in vivo, mouse. As to conditions: single administration, ~4 hour fasted wild type mice. The method, then: The first in vivo study with MK0952 administered by oral gavage while forskolin was administered intraperitoneally one time to ˜4 hour fasted wild type mice was completed. […] This difference likely reflects greater CNS penetrance of the MK0952, not the general relevance of a cyclase activator to therapy of PWS. No change in the ratio of circulating proinsulin:insulin was detected following administration MK0952 or Forskolin. Because the processing of proinsulin to insulin is already quite efficient in WT animals, it is in hindsight unlikely that it would further increase at fasting. However, these ‘baseline’ data are still valuable for assessing proinsulin to insulin processing under the setting of an intraperitoneal glucose tolerance test at […] glucose in both WT and Snord116^p−/m+ mice. Additionally, samples were collected for measurement of circulating cAMP levels, cortical proBDNF/BDNF, cerebellar Pcsk1, gastric Pcsk1, and gastric proghrelin/ghrelin, and finally pulmonary Pcsk1 transcript and cAMP levels.

Series [5] concerns PDE4. As to conditions: read-out: IC50 (intrinsic potency, PDE4 inhibitor); cited from earlier work.
The subject of a further series is whole blood. The following applies: cited from earlier work.
For series [6] the following is noted: cited from earlier work. The source holds these as a separate data set.

Consider `CCOc1cc([C@@H](CS(C)(=O)=O)N2C(=O)c3cccc(NC(C)=O)c3C2=O)ccc1OC` [Apremilast], for which, in the series with PDE4 [1], the PDE4 selectivity entry is on record as “Selective”. Besides, the Brain penetration result in [2] (PDE4 inhibitors, Table 1A) is “None”.

Turning to `C=C[C@@]1(C)CC(=O)[C@]2(O)[C@@]3(C)[C@@H](O)CCC(C)(C)[C@@H]3[C@H](OC(=O)CCN(C)C)[C@H](OC(C)=O)[C@@]2(C)O1.Cl` [FD5], in series [3], the AC isoforms activated entry is “AC5 (AC5 expressed in heart,”.

With `C=C[C@@]1(C)CC(=O)[C@]2(O)[C@@]3(C)[C@@H](O)CCC(C)(C)[C@@H]3[C@H](O)[C@H](OC(C)=O)[C@@]2(C)O1` [Forskolin], the “maximal increase in PCSK1 upregulation” value in the series on PCSK1 transcript (iPSC-derived neurons (line 1043D3), 10 μM Forskolin, four hours) is “about 2.5 fold”. For the same compound, in the series on PCSK1 transcript (iPSC-derived neurons exposed to 10 μM Forskolin), the “PCSK1 transcript levels increase” value is 2-3 fold. For the same compound, in the series with cAMP, the cAMP levels increase result is recorded as “about 8.5 fold”. Besides, in the series on PC1, the “PC1 protein levels increase” value is roughly 3 fold. The Brain penetration entry in [2] (adenylate cyclase activators, Table 2) is on record as “Yes”.

`CCn1ncc2c(NC3CCOCC3)c(-c3nnc(Cc4sc(C)nc4C)o3)cnc21` [GSK356278]: the PDE4 selectivity result in the series with PDE4 [1] is “Selective”. In series [2] (PDE4 inhibitors, Table 1A), the Brain penetration result is on record as “Good”.

`CC(C)Cn1c(=O)n(C)c(=O)c2[nH]cnc21` [IBMX, 3-isobutyl-1-methylxanthine]: in the series on PDE4 [1], the PDE4 selectivity result is “nonselective”.

Regarding `CC(C)C(=O)c1c(C(C)C)nn2ccccc12` [Ibudilast], the Brain penetration entry in series [2] (PDE4 inhibitors, Table 1A) is on record as “Yes”.

One may read the IC50 as the point on the concentration scale where inhibition reaches its midpoint. On to `O=C(NC1CC1)c1cn(-c2cccc(-c3ccc([C@@H]4C[C@H]4C(=O)O)c(F)c3)c2)c2ncccc2c1=O` [MK0952], for which the “PCSK1 transcription, MK0952 as single agent in vitro” value in the series with PCSK1 transcript (iPSC-derived neurons) is given as “only been found to increase PCSK1 transcription in combination with Forskolin”. Further, the “ratio of circulating proinsulin:insulin” value in [4] is recorded as “No change”. The values for the half-inhibitory concentration (IC50) in the series with PDE4 [5] and with whole blood were 0.6 nM and 555 nM, respectively. The PDE4 selectivity entry in the series on PDE4 [1] is on record as “selective”. Also, the Brain penetration entry in series [2] (PDE4 inhibitors, Table 1A) is “brain-penetrant and yes”.

On to `CC(=O)N[C@@H](C)c1cc(Cl)ccc1C1CCN(C(=O)[C@@H]2CN(C(C)(C)C)C[C@H]2c2ccc(F)cc2F)CC1` [MK-0493], for which, in series [6], the “efficacy for weight loss in non-genetic obese” value is on record as “animal models but limited”.

With `O=C(Nc1c(Cl)cncc1Cl)c1ccc(OC(F)F)c(OCC2CC2)c1` [Roflumilast], in the series with PCSK1 transcript (iPSC-derived neurons Day 40 (1043D3 line), 1 mM), the “PCSK1 transcript levels, single agent” value was “increases”. Further, the PDE4 selectivity result with PDE4 [1] was “Selective”. Further, in series [2] (PDE4 inhibitors, Table 1A), the Brain penetration entry is reported as “limited”.

In the case of `Cn1c(=O)c2[nH]cnc2n(C)c1=O` [Theophylline], the “PCSK1 transcript levels, single agent” value in the series with PCSK1 transcript (D34 iPSC-derived hypothalamic ARC neurons (1023A line), 10 mM) is “increases”.
